Measurements from patent publication US6346544B2, “Desmethyl tocopherols for protecting cardiovascular tissue” (Oklahoma Medical Research Foundation, priority 2000, dated 2002).

Legend:
[1] = plasma concentrations of tocopherols and 5-NO2-γ-tocopherol in volunteers; assay type: in vivo, human; details: mean ± SEM
From the text: Smoking is recognized as a major contributing factor to heart disease and γ-T reportedly decreases more than α-T in smokers. Hypertension is also a strong risk factor for heart disease. […] Seven subjects indicated a chronic hypertensive condition. As outlined in Table I, γ-tocopherol tended to decrease in hypertensive subjects while nitration products tended to increase in both smokers and hypertensive subjects. This was the trend regardless of whether the tocopherol concentrations were normalized to plasma triglycerides (Table I).

αKGDH [2] = experiment: αKGDH protection against SIN-1 nitrative stress in isolated mitochondria in vitro; assay type: biochemical, rat
Description: FIG. 3 is a graph showing rat brain mitochondria exposed to 0.4 mM SIN-1 for 1 H after addition of tocopherol. (•)α-tocopherol; (▪)γ-tocopherol. The scale bars labeled [α]norm and [Y]norm indicate the normal endogenous quantities of α-tocopherol and γ-tocopherol, respectively, in human brain.
αKGDH is a rate-limiting enzyme of mitochondrial energy production which is diminished in conditions of vascular ischemia (53-58); augmentation of the enzyme with α-ketoglutarate has been found beneficial and α-ketoglutarate is now included as a component in cardioplegia fluid to improve recovery after heart surgery (59). We undertook to determine whether γT protects αKGDH against nitrative stress in vitro. Mitochondria were isolated from adult rat brain then sonicated briefly in the presence of either αT or γT, or an ethanol vehicle. Mitochondria were then exposed to SIN-1, which generates NO and superoxide simultaneously at a known rate (7). Combination of NO and superoxide yields ONOO^−. in situ (discussed above).

[3] = human plasma γT relative to αT; assay type: in vivo
From the text: Chemistry of tocopherol reaction with oxidizing agents. γ-Tocopherol is a natural product (a desmethyl tocopherol) of plant origin, present in many vegetable oils, especially soybean oil (1-2). γ-Tocopherol is normally taken into the body through consumption of foodstuffs. Human plasma γT concentration is variously reported as 5-30% of αT (3). The γTαT ratio varies markedly among individuals; plasma γT/αT proportionalities may be as low as 0.2% and as high as 30% (inventors' observations). Both αT and γT are absorbed equally well by the gut, but γT is packaged into lipoproteins less effectively than αT (4). For this reason, αT supplementation decreases systemic γT concentration (3-4).
γ-Tocopherol in human biology and cardiovascular disease. Relative to αT, a dearth of epidemiological data exists for γT. Human plasma γT concentration is variously reported as between 5-30% that of αT (41). In platelet-poor plasma, we find that 7% is very close to the correct value in young healthy subjects. The γT/αT ratio varies markedly among individuals; we have observed plasma γT/αT proportionalities as low as 0.2% and as high as 30%. γT is now a major tocopherol in the US diet, due to the high intake of soybean and vegetable oils that are abundant sources of γT (40). Both αT and γT are absorbed equally well by the gut, but γT is packaged into lipoproteins less effectively than αT (39). For this reason, αT supplementation decreases systemic γT concentration (41-42). δ-Tocopherol, β-tocopherol and tocol (other demethylated tocopherol homologs) exist in human plasma at approximately 1:10 ratios relative to γT (41). Detailed demographic data regarding plasma and tissue levels of desmethylated tocopherols and their oxidation products have never been published. While extensive data has been collected on α-tocopherol as a possibly beneficial molecule in cardiovascular disease, very little data has been collected on γT.

[4] = variously reported; cited from earlier work
[5] = liposomes exposed to ONOO−; cited from earlier work
αKGDH [6] = experiment: heart αKGDH activity after tocopherol supplementation, with or without LPS challenge; assay type: in vivo, rat
Description: Rats were injected with 15 mg of tocopherol over the first 1 month of life; specific groups were then challenged with a septic dose of LPS and heart αKGDH activity was assayed 24 H later. *p<0.1 relative to vehicle; †p<0.05 relative to vehicle. N=5/group.
Rat pups were injected intraperitoneally (I.P.) with αT or γT in an olive oil vehicle every other day for 30 days beginning 2 days after birth; control animals received vehicle only. […] A total of 15 mg tocopherol was delivered to each animal over the 30 day period; animal weight at the end of the period was approximately 90 g for all three groups. One half of each animal group was injected with a septic dose of LPS (2.5 mg/kg, I.P). After 24 H, animals were killed and organs collected. αKGDH was assayed in heart tissue and tocopherols were measured by HPLC-ECD/PDA.

[7] = 100 mg/kg/day, 10 days, cited from earlier work
[8] = system: ECV304 human endothelial cells; details: 10 μM α-T, 10 μM γ-T or 5 μM of each; 19 hours preincubation; 5 mM SIN-1; 24 hours
Description: Cultured ECV304 human endothelial cells were exposed to SIN-1 in the presence of 10 μM α-T, 10 μM γ-T or 5 μM of each (FIG. 5). Tocopherols were incubated with the cells for 19 hours prior to addition of SIN-1. Viability was assayed 24 hours later using a standard tetrazolium (MTT) reduction assay.

[9] = rat, in vivo, 30 days
Description: Rat pups were injected intraperitoneally (I.P.) with αT or γT in an olive oil vehicle every other day for 30 days beginning 2 days after birth; control animals received vehicle only. Olive oil was chosen as a vehicle because of the low tocopherol content in this particular vegetable oil. […] One half of each animal group was injected with a septic dose of LPS (2.5 mg/kg, I.P). After 24 H, animals were killed and organs collected. αKGDH was assayed in heart tissue and tocopherols were measured by HPLC-ECD/PDA.

C3H/10T1/2 fibroblasts = details: methylcholanthrene-treated C3H/10T1/2 fibroblasts; cited from earlier work
[10] = tocopherol-depleted rats fed two weeks after iron-dextran; cited from earlier work
platelets = experiment: platelet aggregation in vitro (PRP, aggregometer); assay type: cell-based, human; details: for Platelet Aggregation (% maximum): 500 μM α-tocopherol or 50 μM γ-tocopherol, 1 H preincubation
Description: […] inhibits platelet aggregation in vitro and in vivo, apparently through antagonism of protein kinase C (PKC) (60-63). Concentrations of αT necessary to inhibit aggregation in vitro are on the order of 500 μM (60-63), or approximately 10-fold higher than achieved in vivo. The concentration difference between in vitro and in vivo efficacy has been rationalized on the basis of incomplete tocopherol incorporation into membranes during in vitro incubation (63). Nonetheless, subjects supplemented with oral αT have diminished platelet aggregation (63). We therefore sought to investigate the ability of γ-tocopherol to inhibit platelet aggregation. PRP was obtained from two volunteers. Platelets were stimulated to aggregate with ADP, thrombin receptor activating peptide (TRAP) or the PKC agonist phorbol myristyl acetate (PMA) and aggregation was measured using a 4-channel clinical aggregometer. Specific platelet samples were preincubated with vehicle, αT, γT or 5-NO2-γ-tocopherol for 1 H prior to stimulation. Tocopherol concentrations were set at 10-fold excess to average PRP levels based on the precedent of previous in vitro aggregation experiments that used αT as an inhibitor (60-63).

[11] = cited from earlier work
[12] = rat brain mitochondria, 400 μM SIN-1, one hour

Q: With `Cc1c(C)c2c(c([N+](=O)[O-])c1O)CCC(C)(CCCC(C)CCCC(C)CCCC(C)C)O2` (stereo not drawn) [5-NO2-γ-tocopherol, 5-nitro-γ-tocopherol] as the compound, how does the plasma concentration ([1]; hypertensives, N = 7) read?
A: 20.0 ± 3.7 ng/mL plasma

Q: What about the “plasma concentration normalized to triglyceride” value (“plasma concentration normalized” for short) ([1]; hypertensives, N = 7) of the same compound?
A: 34.9 ± 10.9 ng/mg triglyceride

Q: And the plasma concentration ([1]; population, N = 54)?
A: 11.3 ± 1.6 ng/mL plasma

Q: And the “plasma concentration normalized” value ([1]; population, N = 54)?
A: 14.0 ± 2.5 ng/mg triglyceride

Q: What about the plasma concentration ([1]; smokers, N = 7) of the same compound?
A: 20.0 ± 3.3 ng/mL plasma

Q: And the “plasma concentration normalized” value ([1]; smokers, N = 7)?
A: 23.5 ± 7.2 ng/mg triglyceride

Q: For `Nc1c[n+](N2CCOCC2)no1` [SIN-1, reference compound], which “diminution of αKGDH activity” value (αKGDH [2]; 400 μM SIN-1, one hour, rat brain mitochondria) is on record?
A: approximately 50%

Q: With `Cc1c(O)cc2c(c1C)O[C@](C)(CCC[C@H](C)CCC[C@H](C)CCCC(C)C)CC2` [γ-tocopherol] as the compound, how does the plasma concentration ([1]; hypertensives, N = 7) read?
A: 0.463 ± 0.165 μg/mL plasma

Q: And the “plasma concentration normalized” value ([1]; hypertensives, N = 7)?
A: 0.606 ± 0.153 μg/mg triglyceride

Q: And the plasma concentration ([1]; population, N = 54)?
A: 0.713 ± 0.067 μg/mL plasma

Q: What about the “plasma concentration normalized” value ([1]; population, N = 54) of the same compound?
A: 0.813 ± 0.088 μg/mg triglyceride

Q: And the plasma concentration ([1]; smokers, N = 7)?
A: 0.680 ± 0.153 μg/mL plasma

Q: What about the “plasma concentration normalized” value ([1]; smokers, N = 7) of the same compound?
A: 0.810 ± 0.213 μg/mg triglyceride

Q: What about the “highest observed plasma γT/αT proportionality” value ([3]; inventors' observations) of the same compound?
A: 30%

Q: What about the “lowest observed plasma γT/αT proportionality” value ([3]; inventors' observations) of the same compound?
A: 0.2%

Q: And the “plasma γT concentration as % of αT” value ([3]; platelet-poor plasma, young healthy subjects)?
A: ~7%

Q: What about the “human plasma γT concentration as % of αT” value [4] of the same compound?
A: 5-30%

Q: And the “effectiveness at inhibiting lipid hydroperoxide formation relative to αT” value [5]?
A: twice as effective

Q: And the “heart αKGDH activity after LPS challenge, ranking among groups” value (αKGDH [6]; LPS 2.5 mg/kg I.P., 24 H)?
A: highest heart αKGDH activity

Q: What about the “increase of mean heart αKGDH activity” value (αKGDH [6]; animals not subjected to LPS stress, 15 mg tocopherol I.P. over 30 days) of the same compound?
A: 40%

Q: What about the “increase of plasma level above baseline” value ([7]; own supplementation) of the same compound?
A: 6 fold

Q: What about the “plasma γT concentration as % of the αT concentration” value ([7]; γT supplemented rats) of the same compound?
A: ≤ 10%

Q: And the “effect on SIN-1 toxicity (MTT viability)” value [8]?
A: promoted viability somewhat

Q: What about the “heart tissue tocopherol concentration, controls” value [9] of the same compound?
A: 1.8±0.4 ng/mg protein

Q: What about the “effectiveness at inhibiting neoplastic transformation relative to αT” value (C3H/10T1/2 fibroblasts) of the same compound?
A: 4 fold

Q: What about the “effectiveness at inhibiting systemic lipid oxidation relative to αT” value [10] of the same compound?
A: approximately 35%

Q: What about the “Platelet Aggregation (% maximum)” value (platelets; ADP 20 μM, Subject 1) of the same compound?
A: 117 % maximum

Q: What about the “Platelet Aggregation (% maximum)” value (platelets; ADP 20 μM, Subject 2) of the same compound?
A: 90 % maximum

Q: What about the “Platelet Aggregation (% maximum)” value (platelets; PMA 200 nM, Subject 1) of the same compound?
A: 57 % maximum

Q: And the “Platelet Aggregation (% maximum)” value (platelets; PMA 200 nM, Subject 2)?
A: 29 % maximum

Q: And the “Platelet Aggregation (% maximum)” value (platelets; TRAP 20 μM, Subject 1)?
A: 73 % maximum

Q: What about the “Platelet Aggregation (% maximum)” value (platelets; TRAP 20 μM, Subject 2) of the same compound?
A: 88 % maximum

Q: And the “ability to inhibit PKC-linked platelet aggregation” value (platelets; TRAP or PMA as agonist)?
A: similarly efficacious to αT

Q: What about the “delay/increase of time to occlusive thrombus” value ([11]; 100 mg/kg/day for 10 days, 29% FeCl3 patch) of the same compound?
A: 65%

Q: What about the “inhibition of platelet aggregation kinetics, efficacy relative to αT supplementation” value ([11]; 100 mg/kg/day for 10 days) of the same compound?
A: 2 fold

Q: And the “potency relative to αT at inhibition of thrombogenic correlates, in reference to plasma tocopherol concentrations” value ([11]; rat, in vivo)?
A: 20-30 times

Q: And the “superoxide dismutase activity in the aortas compared to αT treated group” value ([11]; rat, in vivo)?
A: increased significantly

Q: What about the “concentration offering as much αKGDH protection as 1-10 μM αT” value (αKGDH [2]; 400 μM SIN-1, one hour) of the same compound?
A: 50 to 100 nM

Q: And the “αKGDH protection in side-by-side comparison” value (αKGDH [2]; all concentrations tested)?
A: more protective than αT

Q: And the “αKGDH protection relative to corresponding concentration of αT” value (αKGDH [2]; concentrations near 100 nM, 400 μM SIN-1)?
A: approximately 5 times

Q: And the “maximal αKGDH protection relative to αT” value (αKGDH [2]; [12])?
A: approximately 2.5 times

Q: And the “tocopherol concentration of maximal αKGDH protection” value (αKGDH [2]; [12])?
A: 1 µM
